Consider 1 compound from publication PMC4928072, “Dietary apigenin potentiates the inhibitory effect of interferon-α on cancer cell viability through inhibition of 26S proteasome-mediated interferon receptor degradation” (Food & Nutrition Research, 2016).

What all share (type): biochemical
Assay [1] addresses T1, 26S proteasome, β5 subunit (chymotrypsin-like activity) (Homo sapiens, UniProt P28074).
T1 construct: gene PSMB5; purified human 26S proteasome; with other subunits of the 26S proteasome
T1 sequence (P28074 60-263): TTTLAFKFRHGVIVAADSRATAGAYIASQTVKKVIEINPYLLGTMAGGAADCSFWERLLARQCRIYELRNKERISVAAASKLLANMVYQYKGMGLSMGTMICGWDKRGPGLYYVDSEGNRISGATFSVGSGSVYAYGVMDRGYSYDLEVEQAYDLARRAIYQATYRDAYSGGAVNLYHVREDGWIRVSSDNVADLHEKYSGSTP
In words: fluorogenic peptidase assay of purified human 26S proteasome with Suc-Leu-Leu-Val-Tyr-AMC.

Assay [2] concerns the target T2, 26S proteasome, β2 subunit (trypsin-like activity) (Homo sapiens, UniProt Q99436).
T2 construct: gene PSMB7; purified human 26S proteasome; with other subunits of the 26S proteasome
T2 sequence (Q99436 44-277): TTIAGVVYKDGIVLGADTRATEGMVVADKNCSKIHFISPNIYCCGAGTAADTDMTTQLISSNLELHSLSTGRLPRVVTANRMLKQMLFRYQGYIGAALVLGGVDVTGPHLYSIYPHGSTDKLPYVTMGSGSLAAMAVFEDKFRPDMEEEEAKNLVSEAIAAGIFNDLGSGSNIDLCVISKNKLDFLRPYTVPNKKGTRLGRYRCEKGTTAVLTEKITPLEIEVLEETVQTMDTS
As to the kind of experiment: fluorogenic peptidase assay of purified human 26S proteasome with Ac-Arg-Leu-Arg-AMC.

Assay [3] has as its target T3, 26S proteasome, β1 subunit (caspase-like activity) (Homo sapiens, UniProt P28072).
T3 construct: gene PSMB6; purified human 26S proteasome; with other subunits of the 26S proteasome
As to the kind of experiment: peptidase assay of purified human 26S proteasome with Z-Nle-Pro-Nle-Asp-aminoluciferin.

Structures are written as SMILES.

In general, IC50 refers to the concentration needed to halve the response being measured.

T3 sequence (P28072 35-239): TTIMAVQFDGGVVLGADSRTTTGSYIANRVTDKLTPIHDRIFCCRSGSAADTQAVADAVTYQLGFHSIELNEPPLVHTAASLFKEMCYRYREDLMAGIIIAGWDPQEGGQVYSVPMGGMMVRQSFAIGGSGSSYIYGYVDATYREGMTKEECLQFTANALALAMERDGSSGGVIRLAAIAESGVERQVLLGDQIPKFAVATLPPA

Take `O=c1cc(-c2ccc(O)cc2)oc2cc(O)cc(O)c12` [apigenin]: the IC50 stood at 11.5 µM in assay [1], 20 µM in assay [2] and 1.5 µM in assay [3].
